Measured values as given in patent US9724354B2, “Combination of catalytic mTORC1/2 inhibitors and selective inhibitors of Aurora A kinase” (Millennium Pharmaceuticals, Inc., priority 2013, dated 2017).

Columns and labels:
[1] = system: PHTX-14B breast xenograft; experiment: In vivo tumor efficacy, PHTX-14B breast xenograft model; parameters: species or system female Balb/c nude mice; details: for Average tumor volume at day 21: PO
Description: (§1) The PHTX-14B breast xenograft model was established from a patient-derived tumor collected during surgery from a person with ductal carcinoma classified as triple negative breast cancer (ER−/PR−/Her2−) by IHC. PHTX-14B tumor fragments (approximately 2×2×3 mm^3) at passage 7 are implanted into the subcutaneous space in the right dorsal flank of female Balb/c nude mice (age 4-6 weeks, Shanghai SINO-British SIPPR/BK Lab Animal Ltd) using a 13-gauge trocar tumor implantation needle.
(§2) MLN8237 was formulated in 10% HPbCD+1% NaHCO3 and administered by oral injection (1 cc syringe, 20-22 gauge, oral gavages needle) on QD schedule at 3 mg/kg and 20 mg/kg for 21 days. MLN8237 as used in the experimental section refers to sodium 4-{[9-chloro-7-(2-fluoro-6-methoxyphenyl)-5H-pyrimido[5,4-d][2]benzazepin-2-yl]amino}-2-methoxybenzoate monohydrate and the amount referenced is the amount of alisertib dosed. MLN8237 is dosed 24 hours prior to MLN0128 in all three models.
(§3) MLN0128 is formulated in 100% PEG400 and administered by oral injection (1 cc syringe, 20-22 gauge, oral gavages needle) on QD schedule at 0.3 mg/kg for 21 days. 1 mg/kg QD×3/weeks for 3 weeks. MLN0128 is dosed 24 hours after MLN8237 dosing.
(§4) Tumors are measured twice weekly using a vernier caliper. Tumor volumes are calculated using standard procedures (0.5×(length×width^2)). When the tumors reached a volume of approximately 200 mm^3 (PHTX-14B, PHTX-147B) or 167 mm^3 (SUM-149PT), mice are randomized into groups of 8 as described in the tables below, and dosed with vehicle, MLN8237 or MLN0128 or the combination of MLN8237 with MLN0128, at various doses as described below in Tables 8a-10a. Tumor size and body weight are measured approximately twice a week for the duration of the study. Mice are euthanized when their tumor volume reached 10% of their body weight, or when the average tumor volume of a treatment or control group reached approximately 2000 mm^3. Tumor growth continued to be monitored after the dosing period in some studies. Average tumor volume is reported as a function of time for selected groups of selected studies in FIGS. 3, 4 and 5.
(§5) Measurements from day 0 to 21 are analyzed as specified in Tables 8a-10a. All tumor volumes have a value of 1 added to them before log10 transformation. For each animal, the log tumor volume at day 0 is subtracted from the log tumor volume on the subsequent days. This difference vs. time is used to calculate an area under the curve (AUC) for each animal using the trapezoid rule. In instances when an animal in a treatment group is removed early from the study, the last observed tumor value is carried forward through all subsequent time points. The synergy score for the combination of agents A and B is defined as: 100*(mean(AUCAB)−mean(AUCA)−mean(AUCB)+mean(AUCctl))/mean(AUCctl): where AUCAB, AUCA, AUCB, and AUCctl are the AUC values for animals in the combination group, the A group, the B group, and the control group, respectively. The standard error of the synergy score is computed based on the variation in the AUC values among the animals. […] If the P-value is above 0.05, then the combination is considered to be additive. If the P-value is below 0.05, and the synergy score is less than zero, then the combination is considered to be synergistic. […] Otherwise, the combination is classified as antagonistic.

[2] = system: SUM-149PT breast xenograft; experiment: In vivo tumor efficacy, SUM-149PT breast xenograft model; parameters: species or system Balb/c Nude mice; details: PO
Experimental: SUM-149PT (5×10^6) is a tumor cell line grown in Ham's F12 (BD Biosciences) media with 5% FBS, supplemented with 5 μg/ml insulin and 1 μg/ml hydrocortisone media mixed with an equal volume of Matrigel (BD Biosciences). Cell suspension at passage 84 was aseptically injected into the subcutaneous space in the right dorsal flank of Balb/c Nude mice (age 8 weeks, Shanghai SINO-British SIPPR/BK Lab Animal Ltd.) using a 25-gauge needle.
as §2, §3, §4, §5

[3] = system: PHTX-147B breast xenograft; experiment: In vivo tumor efficacy, PHTX-147B breast xenograft model; parameters: species or system female Balb/c nude mice; details: PO
Description: as §1, with “PHTX-147B” for “PHTX-14B”, “Ltd.).” for “Ltd) using a 13-gauge trocar tumor implantation needle.”
as §2, §3, §4, §5

[4] = MLN8237 alone at 3 mg/kg, QD×21
[5] = MLN8237 alone at 20 mg/kg, QD×21
[6] = MLN0128 alone at 0.3 mg/kg, QD×21

COc1cc(Nc2ncc3c(n2)-c2ccc(Cl)cc2C(c2c(F)cccc2OC)=NC3)ccc1C(=O)[O-].O.[Na+] [MLN8237, sodium 4-{[9-chloro-7-(2-fluoro-6-methoxyphenyl)-5H-pyrimido[5,4-d][2]benzazepin-2-yl]amino}-2-methoxybenzoate monohydrate]
Average tumor volume at day 21 ([1]; 3 mg/kg MLN8237, QD): 795.1 mm^3 | Average tumor volume at day 21 ([1]; 20 mg/kg MLN8237, QD): 533.9 mm^3 | antitumor activity in PHTX-14B xenografts ([1]; MLN8237 at 3 mg/kg alone, QD×21): limited and not significant | effect on growth of PHTX-14B xenografts ([1]; MLN8237 at 20 mg/kg alone, QD×21): significantly delayed growth | Average tumor volume at day 21 ([2]; 3 mg/kg MLN8237, QD): 613.4 mm^3 | Average tumor volume at day 21 ([2]; 20 mg/kg MLN8237, QD): 451.6 mm^3 | effect on growth of SUM149PT xenografts [2, 4]: significantly delayed the growth | effect on growth of SUM149PT xenografts [2, 5]: significantly delayed the growth | Average tumor volume at day 21 ([3]; 3 mg/kg MLN8237, QD): 1951.9 mm^3 | Average tumor volume at day 21 ([3]; 20 mg/kg MLN8237, QD): 1694.9 mm^3 | effect on PHTX-147B xenograft growth [3, 4]: only slight or no effect | effect on PHTX-147B xenograft growth [3, 5]: only slight or no effect

CC(C)n1nc(-c2ccc3oc(N)nc3c2)c2c(N)ncnc21 [MLN0128, 3-(2-amino-1,3-benzoxazol-5-yl)-1-(propan-2-yl)-1H-pyrazolo [3,4-d] pyrimidin-4-amine]
Average tumor volume at day 21 ([1]; 0.3 mg/kg MLN0128, QD): 539.1 mm^3 | Average tumor volume at day 21 ([1]; 1 mg/kg MLN0128, QD × 3/week): 475.6 mm^3 | effect on growth of PHTX-14B xenografts ([1]; MLN0128 at 0.3 mg/kg alone, QD×21): significantly delayed growth | effect on growth of PHTX-14B xenografts ([1]; MLN0128 at 1.0 mg/kg alone): significantly delayed growth | Average tumor volume at day 21 ([2]; 0.3 mg/kg MLN0128, QD): 524.5 mm^3 | Average tumor volume at day 21 ([2]; 1 mg/kg MLN0128, QD × 3/week): 696.8 mm^3 | effect on growth of SUM149PT xenografts [2, 6]: significantly delayed the growth | effect on growth of SUM149PT xenografts ([2]; MLN0128 alone at 1.0 mg/kg, QD×3/wk×3 weeks): only responded lightly | Average tumor volume at day 21 ([3]; 0.3 mg/kg MLN0128, QD): 1354.1 mm^3 | Average tumor volume at day 21 ([3]; 1 mg/kg MLN0128, QD × 3/week): 974.8 mm^3 | effect on growth of PHTX-147B xenografts [3, 6]: responded moderately | effect on growth of PHTX-147B xenografts ([3]; MLN0128 alone at 1.0 mg/kg, QD×3/wk×3): significantly delayed the growth
